Measurements as given in patent US8148361B2, “Kinase inhibitors” (Bristol-Myers Squibb Company, priority 2006, dated 2012).
pIC50: −log10 of the molar value.

These molecules were tested against VEGFR-2 (Homo sapiens, UniProt P35968) (assay: VEGFR-2 kinase assay). Details: poly glu/tyr substrate, 33P-ATP; read-out: VEGFR2 IC50.
Chain of VEGFR-2 (P35968 20-1356): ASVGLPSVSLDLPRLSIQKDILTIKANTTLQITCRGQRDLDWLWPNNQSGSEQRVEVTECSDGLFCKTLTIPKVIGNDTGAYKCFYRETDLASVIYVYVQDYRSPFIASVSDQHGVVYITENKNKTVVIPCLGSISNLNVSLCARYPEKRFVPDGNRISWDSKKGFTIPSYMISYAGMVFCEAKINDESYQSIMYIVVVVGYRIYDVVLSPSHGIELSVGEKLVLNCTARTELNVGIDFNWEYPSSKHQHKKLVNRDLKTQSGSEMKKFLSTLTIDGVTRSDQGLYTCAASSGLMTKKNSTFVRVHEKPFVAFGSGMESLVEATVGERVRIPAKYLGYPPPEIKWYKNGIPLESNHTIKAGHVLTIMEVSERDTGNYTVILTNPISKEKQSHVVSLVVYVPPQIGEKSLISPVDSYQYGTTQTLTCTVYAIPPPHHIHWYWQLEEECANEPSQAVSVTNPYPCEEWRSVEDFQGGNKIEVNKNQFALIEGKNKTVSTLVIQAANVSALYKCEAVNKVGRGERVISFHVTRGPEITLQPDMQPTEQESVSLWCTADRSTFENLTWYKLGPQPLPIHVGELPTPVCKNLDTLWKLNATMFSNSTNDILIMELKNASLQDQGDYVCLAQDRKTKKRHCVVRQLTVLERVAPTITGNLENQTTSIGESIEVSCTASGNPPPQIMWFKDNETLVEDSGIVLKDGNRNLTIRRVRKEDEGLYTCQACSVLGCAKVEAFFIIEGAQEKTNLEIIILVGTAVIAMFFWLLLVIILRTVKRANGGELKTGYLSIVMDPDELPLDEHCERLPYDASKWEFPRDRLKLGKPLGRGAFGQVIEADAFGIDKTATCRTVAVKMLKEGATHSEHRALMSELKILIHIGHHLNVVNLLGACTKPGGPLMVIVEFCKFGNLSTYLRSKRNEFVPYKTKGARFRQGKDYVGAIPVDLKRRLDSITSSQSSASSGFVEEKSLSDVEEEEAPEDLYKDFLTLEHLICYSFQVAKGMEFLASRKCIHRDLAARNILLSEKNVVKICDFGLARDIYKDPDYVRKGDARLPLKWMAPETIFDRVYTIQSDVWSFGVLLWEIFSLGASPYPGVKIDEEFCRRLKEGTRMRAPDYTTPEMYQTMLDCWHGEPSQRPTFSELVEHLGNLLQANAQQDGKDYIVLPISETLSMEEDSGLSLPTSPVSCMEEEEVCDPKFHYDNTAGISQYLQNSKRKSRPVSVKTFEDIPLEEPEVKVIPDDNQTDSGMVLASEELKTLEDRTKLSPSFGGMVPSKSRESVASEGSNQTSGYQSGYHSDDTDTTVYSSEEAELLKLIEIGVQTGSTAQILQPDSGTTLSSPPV
Type: biochemical
Procedure: 1. VEGFR-2 and FGFR-1 Kinase Assays:
Incubation mixtures employed for VEGFR-2 or FGFR-1 assay contain the synthetic substrate poly glu/tyr, (4:1), ATP, ATP-γ-^33P and buffer containing Mn^++ and/or Mg^++, DTT, BSA, and Tris buffer. The reaction is initiated by addition of enzyme and after 60 minutes at room temperature is terminated by the addition of 30% TCA to a final concentration of 15% TCA. Inhibitors are brought to 10 mM in 100% DMSO. Assays are prepared in a 96 well format in quadruplicate. Compounds are diluted 1:500 in 100% DMSO and then 1:10 in water for a final DMSO concentration of 10%. 10 μL are added to rows B-H in a 96 well format of 10% DMSO. 20 μl of compound is added to row A at a concentration 5 fold higher than running conditions. Ten μL are transferred to each row followed by six serial dilutions with mixing, and at row F 10 μL are discarded. Row G is a control with no compound and row H is no compound and no enzyme control. Enzyme and substrate are delivered using a Tomtec Quadra station.
Plates are covered with sticky plate tops, incubated at 27° C. for 60 minutes, and then acid precipitated with TCA for 20 minutes on ice. The precipitate is transferred to UniFilter-96, GF/C microplates using either a Tomtec or Packard FilterMate harvester. Activity is determined by quantitating the incorporated radioactivity using a Packard TopCount Microplate Scintillation Counter following the addition of Microscint-20 cocktail into each dried well of the UniFilter microplates.
In the case of `O=C(NC1CC1)c1ccc(F)c(NCc2cnc3[nH]c(-c4ccccc4)cc3c2)c1` [Example 1, N-Cyclopropyl-4-fluoro-3-{(2-phenyl-1H-pyrrolo[2,3-b]pyridin-5-yl)methylamino}benzamide], the pIC50 was 7.80.
With `O=C(NC1CC1)c1cc(NCc2cnc3[nH]c(-c4ccccc4)cc3c2)c(F)cc1F` [Example 2, N-cyclopropyl-2,4-difluoro-5-((2-phenyl-1H-pyrrolo[2,3-b]pyridin-5-yl)methylamino)benzamide] the pIC50 was 7.19.
`O=C(NC1CC1)c1ccc(F)c(CNc2cnc3[nH]c(-c4ccccc4)cc3c2)c1` [Example 3, N-cyclopropyl-4-fluoro-3-((2-phenyl-1H-pyrrolo[2,3-b]pyridin-5-ylamino)methyl)benzamide] gave a pIC50 of 6.99.
With `O=C(NC1CC1)c1ccc(F)c(NCc2cnc3[nH]c(C4CC4)cc3c2)c1` [Example 4, N-cyclopropyl-3-((2-cyclopropyl-1H-pyrrolo[2,3-b]pyridin-5-yl)methylamino)-4-fluorobenzamide] the pIC50 was 6.84.
`O=C(NC1CC1)c1ccc(F)c(NCc2cnc3[nH]c(-c4cccnc4)cc3c2)c1` [Example 5, N-cyclopropyl-4-fluoro-3-((2-(pyridin-3-yl)-1H-pyrrolo[2,3-b]pyridin-5-yl)methylamino)benzamide] was tested, and the pIC50 was 7.77.

These molecules were tested against T1, IGF-1 receptor tyrosine kinase (Homo sapiens, UniProt P08069) (assay: IGF-receptor tyrosine kinase assay). Details: poly(Glu/Tyr) substrate, 25 μM ATP, baculovirus expressed enzyme; read-out: IGF1R IC50.
T1 construct: host or cells: baculovirus expression system
T1 sequence (P08069 31-1367): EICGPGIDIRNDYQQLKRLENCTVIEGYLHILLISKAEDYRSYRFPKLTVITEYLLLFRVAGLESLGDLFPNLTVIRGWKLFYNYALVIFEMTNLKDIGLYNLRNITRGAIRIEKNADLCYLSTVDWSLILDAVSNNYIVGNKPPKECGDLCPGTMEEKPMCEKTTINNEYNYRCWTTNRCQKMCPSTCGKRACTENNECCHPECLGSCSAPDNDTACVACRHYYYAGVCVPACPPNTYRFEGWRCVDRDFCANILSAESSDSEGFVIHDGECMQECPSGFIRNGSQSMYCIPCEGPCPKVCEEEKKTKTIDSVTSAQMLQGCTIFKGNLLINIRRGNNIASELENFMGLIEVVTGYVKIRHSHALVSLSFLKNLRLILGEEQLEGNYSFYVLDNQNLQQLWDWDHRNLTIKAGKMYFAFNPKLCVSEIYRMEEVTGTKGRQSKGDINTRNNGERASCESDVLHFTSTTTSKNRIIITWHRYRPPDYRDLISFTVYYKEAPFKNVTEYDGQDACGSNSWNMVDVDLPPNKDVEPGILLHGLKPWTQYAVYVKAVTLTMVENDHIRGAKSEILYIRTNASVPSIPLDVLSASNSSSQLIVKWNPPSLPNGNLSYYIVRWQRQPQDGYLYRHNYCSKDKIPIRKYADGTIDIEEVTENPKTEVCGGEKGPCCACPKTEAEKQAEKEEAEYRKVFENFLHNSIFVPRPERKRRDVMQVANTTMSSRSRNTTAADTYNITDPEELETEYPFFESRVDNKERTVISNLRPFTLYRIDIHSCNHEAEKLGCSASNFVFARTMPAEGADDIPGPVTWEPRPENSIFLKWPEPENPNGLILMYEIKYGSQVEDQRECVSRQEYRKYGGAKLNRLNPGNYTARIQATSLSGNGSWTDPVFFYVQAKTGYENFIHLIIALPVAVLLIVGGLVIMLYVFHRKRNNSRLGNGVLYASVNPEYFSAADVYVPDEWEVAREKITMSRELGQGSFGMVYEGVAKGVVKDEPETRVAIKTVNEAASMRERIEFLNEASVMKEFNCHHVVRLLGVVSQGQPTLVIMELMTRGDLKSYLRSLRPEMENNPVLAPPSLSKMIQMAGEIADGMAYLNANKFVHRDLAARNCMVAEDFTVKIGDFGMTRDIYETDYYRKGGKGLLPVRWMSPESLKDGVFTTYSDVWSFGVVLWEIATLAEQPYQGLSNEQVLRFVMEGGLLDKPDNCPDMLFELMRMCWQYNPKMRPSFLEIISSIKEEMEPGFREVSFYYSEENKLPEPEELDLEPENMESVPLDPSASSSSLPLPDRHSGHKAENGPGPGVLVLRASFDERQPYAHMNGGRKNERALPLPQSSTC
Type: biochemical
Procedure: 3. IGF-Receptor Tyrosine Kinase Assay
The IGF-1 receptor tyrosine kinase was assayed using the synthetic polymer poly(Glu/Tyr) (Sigma Chemicals) as a phosphoacceptor substrate. Each reaction mixture consisted of a total volume of 50 ul and contained 125 ng of baculovirus expressed enzyme, 2.5 μg of poly(Glu/Tyr), 25 μM of ATP, and 0.1 μCi of [γ-^33P]ATP. The mixtures also contained 20 mM MOPS, pH 7.0, 5 mM MnCl2, 0.5 mM […], and 0.1 mg/ml bovine serum albumin. The reaction mixtures were incubated at 30° C. for 45 minutes and kinase activity was determined by quantitation of the amount of radioactive phosphate transferred to the poly(Glu/Tyr) substrate. Incorporation was measured by the addition of cold trichloroacetic acid (TCA) precipitation of the proteins which were collected onto GF/C unifilter plates (Packard Instrument Co., Meriden, Conn.) using a Filtermate universal harvester and the filters were quantitated using a TopCount 96-well liquid scintillation counter (Packard Instrument Co., Meriden, Conn.). Compounds were dissolved in dimethyl sulfoxide to a concentration of 10 mM and were evaluated at six concentrations, each in triplicate.
For `O=C(NC1CN(S(=O)(=O)c2ccc(F)cc2)C1)c1cccc(Sc2cnc3[nH]c(-c4ccccc4)cc3c2)c1` [Example 13, N-(1-(4-fluorophenylsulfonyl)azetidin-3-yl)-3-(2-phenyl-1H-pyrrolo[2,3-b]pyridin-5-ylthio)benzamide], the pIC50 was 6.70.
